Patent US11957699B2, “Composition comprising punicalagin for inhibiting PAR2 activity” (INDUSTRY-ACADEMIC COOPERATION FOUNDATION, YONSEI UNIVERSITY, priority 2018, dated 2024)

Legend:
NIH3T3 cells = assay: Cell viability of NIH3T3 cells; assay type: cell-based; details: up to 30 μM
Procedure: (§1) In order to determine the toxicity of punicalagin, the effect of NIH3T3 cells on cell viability and the weight change of 8-week-old wild-type mice were evaluated, and the heart, liver, and lung were extracted from 30-week-old lupus mice and were histologically evaluated by performing hematoxylin-eosin staining.

[1] = test system: C57BL6N mice with pruritus induced by PAR2-AP; assay: Pruritus induced by PAR2-AP in mice (number of scratches); assay type: in vivo; details: for number of scratches during the initial 10 minutes: saline group 104; for number of scratches for 40 minutes: PAR2-AP group about 240
Procedure: In seven-week-old C57BL6N mice, it was confirmed whether punicalagin (PG) has an effect of alleviating pruritus symptoms induced by PAR2 receptor activation by PAR2-AP (activating peptide). In addition, the effects of punicalin (PNC) and ellagic acid (EA), which are metabolites of punicalagin and contained in pomegranate peel in a large amount, were also confirmed.
Specifically, each of 0, 1, 3, and 10 mg/kg punicalagin (n=4) was dissolved in physiological saline and intraperitoneally injected, and after 30 minutes, 100 μg of PAR2-AP was intradermally injected to induce pruritus. As control groups, a group which was intraperitoneally injected with physiological saline only (n=4) and a group which was intraperitoneally injected with 10 mg/kg punicalagin (n=4) were established, and the number of scratches was measured for 40 minutes.

[2] = test system: NZB/W F1 mice with lupus nephritis; assay: Lupus nephritis mouse model (NZB/W F1); assay type: in vivo
Procedure: With NZB/W F1 mice that were purchased from Central Lab. Animal Inc., the effect of punicalagin on symptoms of lupus nephritis was confirmed.
As control groups, there were two groups including a nephritis-induced group that was injected only with physiological saline and a nephritis-induced group that was injected with 7 mg/kg methylprednisolone (MPL), which is a standard therapeutic agent for lupus nephritis, and proteinuria was measured twice a week (panel A of FIG. 9).
Next, the protective effect of punicalagin on renal structural damage against lupus nephritis was histologically evaluated. To this end, kidneys were extracted and PAS stained in 30-week-old mice, and the degree of damage to glomeruli, ducts, and blood vessels was histologically quantified. In addition, when lupus nephritis was induced, the expressions of IgG and C3, which are autoantibodies mostly expressed in kidney tissues, were fluorescence-stained and observed under a fluorescence microscope.
In order to determine the mechanism of the alleviating effect of punicalagin on lupus nephritis, the spleen was extracted from 30-week-old mice, the spleen weight and the number of splenocytes were measured, and changes in T cells in the spleen were analyzed by FACS.
After serum was isolated from 30-week-old mice, it was analyzed by the enzyme immunoassay to determine whether punicalagin inhibited or increased cytokines that were expressed by lupus nephritis.
In order to determine the alleviating effect of punicalagin on lupus nephritis, serum was isolated from 30-week-old mice, and the expression of B cell autoantibodies was analyzed by the enzyme immunoassay.
In order to determine the alleviation mechanism of punicalagin against lupus nephritis, the expressions of VCAM-1 and ICAM-1 were analyzed by immunohistochemical staining in renal tissues of 30-week-old mice.

[3] = Weight change of wild-type mice; assay type: in vivo; details: 10 mg/kg intraperitoneally at 2-day intervals
Procedure: as §1

[4] = test system: SD rats with colitis induced by TNBS; assay: Colitis induced by trinitrobenzene sulfonic acid (TNBS) in rats; assay type: in vivo; details: 1, 3 and 10 mg/kg intraperitoneally for 3 days
Procedure: Specifically, 80 mg/kg TNBS was diluted in 50% ethanol and injected into the anus of rats, and punicalagin (1, 3, and 10 mg/kg) was intraperitoneally injected for 3 days. As control groups, a group which was intraperitoneally injected with PBS and treated with 50% ethanol only (n=3) and a group which was intraperitoneally injected with PBS and was treated only with TNBS (n=3) were established, and weight change was measured. After 3 days, the rats of each group were sacrificed, the colon was extracted to measure the length, and the spleen was extracted and weighed.

[5] = test system: ICR mice with atopic dermatitis induced by DNFB; assay: Atopic dermatitis and pruritus induced by DNFB in mice; assay type: in vivo; details: 3 mg/kg intraperitoneally daily
Procedure: In 12-week-old ICR mice, it was confirmed whether punicalagin inhibits pruritus caused by atopic dermatitis induced by 1-fluoro-2,4-dinitrobenzene (DNFB).
Specifically, as shown in panel A of FIG. 19, punicalagin (PG) was dissolved in physiological saline and intraperitoneally injected at 3 mg/kg daily for 17 days, and atopic dermatitis and pruritus were induced by treating 0.15% DNFB dissolved in acetone with a cotton swab on the back of the mice on the 10th, 13th, 20th, and 27th days.

[6] = test system: SD rats with acute pancreatitis induced by caerulein; assay: Acute pancreatitis induced by caerulein in rats; assay type: in vivo
Procedure: In 6-week-old SD rats, it was confirmed whether punicalagin has an effect of alleviating symptoms of acute pancreatitis induced by caerulein.
Specifically, […], and after 30 minutes, 40 μg/kg of caerulein, which is an acute pancreatitis-inducing substance, was intraperitoneally injected, and then, after 2 hours, the pancreas of the experimental animals was extracted and analyzed.
First, the weight of the extracted pancreas was measured to determine whether punicalagin inhibits edema, which is a symptom of acute pancreatitis. As a result, it was confirmed that when 10 mg/kg punicalagin was administered to […], in which acute pancreatitis was induced by caerulein, the edema of the pancreas was inhibited by 95% or more (panel A of FIG. 8).
Next, as a result of observing the nucleus and cytoplasm of the extracted pancreatic tissue with a microscope through H&E staining in order to confirm the damage to pancreatic cells by caerulein, it was confirmed that in the rats administered with caerulein, the distance between pancreatic cells was increased and the cells were damaged due to symptoms of acute pancreatitis.

[7] = 3 mg/kg, 1 mg/kg, and 0.3 mg/kg
[8] = 3 mg/kg, 1 mg/kg, and 0.3 mg/kg, similar to methylprednisolone

With `O=CC1OC(=O)c2cc(O)c(O)c(O)c2-c2c(cc(O)c(O)c2O)C(=O)OC1C1OC(=O)c2cc(O)c(O)c(O)c2-c2c(O)c(O)c3oc(=O)c4c(c(O)c(O)c5oc(=O)c2c3c54)-c2c(cc(O)c(O)c2O)C(=O)OCC1O` (stereo not drawn) [punicalagin, 1,2,3,11,12,13-hexahydroxy-5,10-dioxo-8-[3,4,5,11,17,18,19,22,23,34,35-undecahydroxy-8,14,26,31-tetraoxo-9,13,25,32-tetraoxaheptacyclo[25.8.0.0^2,7.0^15,20.0^21,30.0^24,29.0^28,33]pentatnaconta-1(35),2,4,6,15,17,19,21,23,27,29,33-dodecaen-10-yl]-5,7,8,10-tetrahydrodibenzo[f,h][1,4]dioxecin-7-carbaldehyde] the “effect on viability of NIH3T3 cells” value (NIH3T3 cells) was “no effect”, the “number of scratches during the initial 10 minutes” value ([1]; 1 mg/kg intraperitoneally, 100 μg PAR2-AP intradermally) was “about 59 times” and the “number of scratches for 40 minutes” value ([1]; 1 mg/kg) was “about 188 times”. The “number of scratches during the initial 10 minutes” value ([1]; 3 mg/kg intraperitoneally) was roughly 28 times, the “number of scratches for 40 minutes” value ([1]; 3 mg/kg) was roughly 103 times and the “number of scratches during the initial 10 minutes” value ([1]; 10 mg/kg intraperitoneally) was roughly 14 times. For the same compound, the “number of scratches for 40 minutes” value ([1]; 10 mg/kg) was roughly 40 times, the kidney weight ([2]; 1 mg/kg) was “reduced” and the “serum expressions of anti-dsDNA, IgG1, IgG2a, IgG2b, and IgG3” value ([2]; 1 mg/kg and 10 mg/kg) was “decreased”. The “expression of regulatory T cells (Treg)” value ([2]; 3 mg/kg) was “significantly increased”, the “number of CD4 T cells in the spleen and expressions of TH1, TH2, and TH17 T cells (FACS)” value ([2]; 3 mg/kg and 1 mg/kg) was “significantly reduced” and the “lower proteinuria compared to the nephritis-induced group” value ([2]; 3 mg/kg and 1 mg/kg, at the level of 7 mg/kg methylprednisolone) was 60%. For the same compound, the serum creatinine concentration ([2]; 3 mg/kg group) was “lowest”, the “degree of damage to glomeruli, ducts, and blood vessels (PAS staining)” value ([2]; 3 mg/kg, 1 mg/kg, and 0.1 mg/kg, 30-week-old mice, similar to methylprednisolone) was “alleviated” and the “IgG and C3 depositions in kidney tissue (fluorescence)” value [2, 7] was “significantly reduced”. For the same compound, the “expressions of VCAM-1 and ICAM-1 in kidney tissues (immunohistochemical staining)” value [2, 7] was “significantly reduced”, the “serum expressions of IL-10 and TGF-β1” value [2, 7] was “increased” and the “total number of splenocytes” value [2, 7] was “not increased”. For the same compound, the “serum expressions of IFN-γ, IL-17A, and IL-6” value [2, 8] was “reduced”, the “weight of the spleen” value [2, 8] was “not increased” and the “mortality from 23 weeks to 30 weeks” value ([2]; 3, 1 and 0.3 mg/kg intraperitoneally three times a week) was “none of the subjects died”. The “serum creatinine concentration vs nephritis-induced group” value ([2]; punicalagin-treated groups (3, 1, 0.3 mg/kg)) was “lower”, the “weight change in wild-type mice” value [3] was “no weight change” and the “colon tissue damage caused by TNBS” value [4] was “inhibited colon tissue damage caused by TNBS in a concentration-dependent manner”. For the same compound, the “concentrations of inflammatory cytokines (INF-γ, IL-2, IL-4, IL-6, IL-β, TNF-α, IL-1β, etc.) increased by TNBS” value [4] was “significantly decreased”, the “colon length reduction by TNBS” value ([4]; concentration-dependent) was “significantly inhibited” and the “weight increase of the spleen by TNBS” value ([4]; concentration-dependent) was “significantly inhibited”. The “weight loss by TNBS” value ([4]; concentration-dependent) was “significantly inhibited”, the “suppression of the number of scratches caused by DNFB, measured for 30 minutes” value [5] was “about 60%” and the “atopic dermatitis (skin inflammation)” value ([5]; 0.15% DNFB) was “significantly reduced”. The “inhibition of edema of the pancreas (pancreas weight)” value ([6]; 10 mg/kg, 30 minutes before 40 μg/kg caerulein, pancreas extracted after 2 hours) was no less than 95%, the “edema of the pancreas and cell damage (H&E staining)” value ([6]; pretreated at 3 mg/kg, then caerulein) was “strongly inhibited” and the “concentrations of inflammatory cytokines (INF-γ, IL-2, IL-4, IL-6, IL-β, TNF-α, IL-1β, etc.) increased by caerulein” value ([6]; rat, in vivo) was “significantly decreased”.
